Data set [1] has as its system HCT116 cells, MKN45 cells. Description: Test C: Measurement of cell proliferation by 14C-thymidine pulse. It counts as cell-based. The conditions noted are these: 14C-thymidine incorporation, 96 h of treatment; cell line not given. In outline: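 HCT116 (2500/well, DMEM) and MKN45 (7500/well, RPMI), both with 10% FCS, treated after 4 h with 10 concentrations from 10 000 to 0.3 nM (3-fold, duplicate). ¹⁴C-thymidine (0.1 μCi/well) added at 72 h; incorporation read after 24 h pulse, 96 h total treatment.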

Data set [2] concerns the target T1, MET (Homo sapiens, UniProt P08581). Description: Test B: Inhibition of the autophosphorylation of MET; ELISA technique (pppY1230,1234,1235) in MKN45 cells. It counts as cell-based. On the set-up: Seed MKN45 cells into 96-well plates (Cell coat BD polylysine) at 20 000 cells/well; endogenous in cells; host or cells: MKN45 cells. The conditions noted are these: 1 h treatment, PhosphoMET ELISA. In outline:
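Adhered cells treated 1 h with six compound concentrations in duplicate, final 10 000 to 30 nM, against DMSO controls. Cells then lysed at 4° C for 30 min in Triton/SDS/deoxycholate buffer with phosphatase inhibitors. Phospho-MET measured by sandwich ELISA with anti-phospho MET antibody and HRP detection, absorbance at 450 nm.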
Target sequence in this assay (P08581 25-1390): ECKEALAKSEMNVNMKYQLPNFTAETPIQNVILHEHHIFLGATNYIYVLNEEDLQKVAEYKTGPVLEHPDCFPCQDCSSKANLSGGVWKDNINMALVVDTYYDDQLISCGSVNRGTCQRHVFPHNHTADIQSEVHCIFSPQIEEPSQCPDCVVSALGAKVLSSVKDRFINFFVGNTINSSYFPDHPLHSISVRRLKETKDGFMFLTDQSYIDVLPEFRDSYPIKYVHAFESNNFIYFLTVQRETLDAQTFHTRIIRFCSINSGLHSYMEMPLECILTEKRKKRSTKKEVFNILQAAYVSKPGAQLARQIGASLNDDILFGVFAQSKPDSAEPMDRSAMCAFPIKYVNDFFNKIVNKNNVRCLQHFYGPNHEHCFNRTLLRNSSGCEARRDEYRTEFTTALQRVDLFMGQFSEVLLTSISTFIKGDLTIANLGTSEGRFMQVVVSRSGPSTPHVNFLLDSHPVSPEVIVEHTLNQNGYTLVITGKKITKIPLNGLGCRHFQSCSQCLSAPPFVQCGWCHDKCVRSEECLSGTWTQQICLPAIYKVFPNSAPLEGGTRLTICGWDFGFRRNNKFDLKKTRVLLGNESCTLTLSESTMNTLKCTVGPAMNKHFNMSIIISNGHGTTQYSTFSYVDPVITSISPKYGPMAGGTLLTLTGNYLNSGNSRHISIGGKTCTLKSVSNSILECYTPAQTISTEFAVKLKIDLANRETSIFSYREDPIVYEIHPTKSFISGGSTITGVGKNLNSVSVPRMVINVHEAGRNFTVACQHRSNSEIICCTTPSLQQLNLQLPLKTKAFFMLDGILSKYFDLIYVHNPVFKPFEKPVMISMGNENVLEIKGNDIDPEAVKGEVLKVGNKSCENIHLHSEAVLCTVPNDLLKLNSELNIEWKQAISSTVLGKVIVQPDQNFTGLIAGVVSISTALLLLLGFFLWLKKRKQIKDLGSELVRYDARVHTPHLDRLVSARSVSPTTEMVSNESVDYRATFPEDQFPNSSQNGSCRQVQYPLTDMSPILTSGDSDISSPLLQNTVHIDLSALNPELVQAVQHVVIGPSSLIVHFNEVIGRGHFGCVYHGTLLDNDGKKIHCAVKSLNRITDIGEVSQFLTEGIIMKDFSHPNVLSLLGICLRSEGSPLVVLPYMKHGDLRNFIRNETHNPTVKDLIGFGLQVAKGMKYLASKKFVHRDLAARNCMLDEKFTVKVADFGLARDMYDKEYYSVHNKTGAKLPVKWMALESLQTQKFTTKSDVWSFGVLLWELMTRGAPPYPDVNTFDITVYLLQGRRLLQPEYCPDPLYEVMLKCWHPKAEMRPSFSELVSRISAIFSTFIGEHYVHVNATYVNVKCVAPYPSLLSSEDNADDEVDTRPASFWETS
(In general: ELISA stands for enzyme-linked immunosorbent assay.)

Data set [3] deals with T1, MET. Description: Test A: HTRF MET assay in 96-well format. It counts as biochemical. On the set-up: The His-Tev-MET (956-1390) recombinant DNA in pFastBac (Invitrogen) is transfected into insect cells; His tag (N, cleaved yes); TEV cleavage site (N); made in house; host or cells: SF21 insect cells (baculovirus, pFastBac). As to conditions: MET 5 nM, 10 μM ATP. Put shortly:
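Purified human MET cytoplasmic domain (956-1390, His tag cleaved), 5 nM, with compound (0.17 nM–10 μM, 3% DMSO) in MOPS pH 7.4; 1 μg/ml poly-(GAT), 10 μM ATP, 5 mM MgCl2, 10 min at ambient temperature. HTRF read-out (streptavidin-XL/anti-pTyr Eu cryptate, 2 h); % inhibition from 665/620 ratios.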
Target sequence in this assay (P08581 956-1390): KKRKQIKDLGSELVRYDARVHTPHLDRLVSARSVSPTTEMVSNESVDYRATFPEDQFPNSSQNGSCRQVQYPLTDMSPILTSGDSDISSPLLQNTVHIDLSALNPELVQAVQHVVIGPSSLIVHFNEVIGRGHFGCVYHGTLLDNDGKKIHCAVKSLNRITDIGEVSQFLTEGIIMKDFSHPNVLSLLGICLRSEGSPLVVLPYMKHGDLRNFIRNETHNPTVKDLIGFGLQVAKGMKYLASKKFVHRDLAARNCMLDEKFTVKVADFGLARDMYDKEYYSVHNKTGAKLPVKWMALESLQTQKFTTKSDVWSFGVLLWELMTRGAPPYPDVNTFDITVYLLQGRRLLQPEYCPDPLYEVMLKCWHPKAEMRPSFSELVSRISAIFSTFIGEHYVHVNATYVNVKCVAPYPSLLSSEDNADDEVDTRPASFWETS
(In general: In TR-FRET formats the signal depends on donor and acceptor labels being close together.)

Each structure is given as a SMILES string. pIC50: −log10 of the molar value.

For `CCOc1ccc2nnc(Sc3ccc4nc(NC(=O)NC5CC5)sc4c3)n2n1` [Example 59, 1-cyclopropyl-3-{6-[(6-ethoxy[1,2,4]triazolo[4,3-b]pyridazin-3-yl)sulphanyl]-1,3-benzothiazol-2-yl}urea], the pIC50 is more than 6.00 in data set [1], more than 7.00 in data set [2] and more than 7.00 in data set [3].

Regarding `O=C(Nc1nc2ccc(Sc3nnc4ccc(-c5ccc(F)cc5)nn34)cc2s1)C1CC1` [Example 60, N-(6-{[6-(4-Fluorophenyl)[1,2,4]triazolo[4,3-b]pyridazin-3-yl]sulphanyl}-1,3-benzothiazol-2-yl)cyclopropanecarboxamide], the negative logarithm of the IC50 (pIC50) in data set [1] was more than 6.00; in data set [2] it was more than 7.00; in data set [3], more than 7.00.

As to `O=C(Nc1nc2ccc(Sc3nnc4n3N=C(c3ccc(F)cc3)CC4)cc2s1)C1CC1` [Example 61, N-(6-{[6-(4-Fluorophenyl)-7,8-dihydro[1,2,4]triazolo[4,3-b]pyridazin-3-yl]sulphanyl}-1,3-benzothiazol-2-yl)cyclopropanecarboxamide], the figures for the negative-log IC50 (pIC50) in data set [1], in data set [2] and in data set [3] were more than 6.00, more than 7.00 and more than 7.00, respectively.

For the compound `Nc1nc2ccc(Sc3nnc4ccc(NC5CCCCC5)nn34)cc2s1` [Example 62, 3-[(2-Amino-1,3-benzothiazol-6-yl)sulphanyl]-N-cyclohexyl[1,2,4]triazolo[4,3-b]pyridazin-6-amine], the pIC50 is more than 6.00 in data set [1], more than 7.00 in data set [2] and more than 7.00 in data set [3].

As for `Nc1nc2ccc(Sc3nnc4ccc(OC5CCCCC5)nn34)cc2s1` [Example 63, 6-{[6-(Cyclohexyloxy)[1,2,4]triazolo[4,3-b]pyridazin-3-yl]sulphanyl}-1,3-benzothiazol-2-amine], the pIC50 was more than 6.00 in data set [1], 6.30 to 7.00 in data set [2] and more than 7.00 in data set [3].

Regarding `O=C(NCCN1CCOCC1)Nc1nc2ccc(Sc3nnc4ccc(-c5cccc(F)c5)nn34)cc2s1` [Example 64, 1-(6-{[6-(3-Fluorophenyl)[1,2,4]triazolo[4,3-b]pyridazin-3-yl]sulphanyl}-1,3-benzothiazol-2-yl)-3-[2-(morpholin-4-yl)ethyl]urea], the figures for the negative-log IC50 (pIC50) in data set [1], in data set [2] and in data set [3] were more than 6.00, more than 7.00 and more than 7.00, respectively.

In the case of `CC(=O)Nc1nc2ccc(Sc3nnc4ccc(-c5cccc(F)c5)nn34)cc2s1` [Example 65, N-(6-{[6-(3-Fluorophenyl)[1,2,4]triazolo[4,3-b]pyridazin-3-yl]sulphanyl}-1,3-benzothiazol-2-yl)acetamide], the pIC50 was more than 6.00 in data set [1], more than 7.00 in data set [2] and more than 7.00 in data set [3].

As to `CC(C)C(=O)Nc1nc2ccc(Sc3nnc4ccc(-c5ccc(F)cc5)nn34)cc2s1` [Example 66, N-(6-{[6-(4-Fluorophenyl)[1,2,4]triazolo[4,3-b]pyridazin-3-yl]sulphanyl}-1,3-benzothiazol-2-yl)-2-methylpropanamide], the pIC50 was more than 6.00 in data set [1], 6.30 to 7.00 in data set [2] and more than 7.00 in data set [3].

As to `O=C(Nc1nc2ccc(Sc3nnc4ccc(-c5cccc(F)c5)nn34)cc2s1)C1CC1` [Example 67, N-(6-{[6-(3-Fluorophenyl)[1,2,4]triazolo[4,3-b]pyridazin-3-yl]sulphanyl}-1,3-benzothiazol-2-yl)cyclopropanecarboxamide], the pIC50 was more than 6.00 in data set [1], more than 7.00 in data set [2] and more than 7.00 in data set [3].

With `CCC(C)CNc1nc2ccc(Sc3nnc4n3N=C(c3ccc(F)cc3)CC4)cc2s1` (stereo not shown) [Example 68, 6-{[6-(4-Fluorophenyl)-7,8-dihydro[1,2,4]triazolo[4,3-b]pyridazin-3-yl]sulphanyl}-N-(2-methylbutyl)-1,3-benzothiazol-2-amine], the melting point is 220 °C. The compound further gave a pIC50 in data set [1] of more than 5.00. The negative logarithm of the IC50 (pIC50) in data set [2] was less than 6.30. For the same compound, the pIC50 in data set [3] was more than 6.30.

By pIC50 is commonly meant the negative decadic logarithm of the IC50, by convention in mol/L. The melting point is the temperature of the solid-liquid transition.

These data come from patent US9115134B2, “6-triazolopyridazine sulfanyl benzothiazole derivatives as MET inhibitors” (SANOFI, priority 2007, dated 2015).
